Reference: ChEMBL document CHEMBL1201861, “Genomics of Drug Sensitity in Cancer screening data, Wellcome Trust Sanger Institute”

How the values were obtained:
Assay in all cases: cells
Type in all cases: functional, cell-based, Homo sapiens
COLO-800 = tested on: COLO-800;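 note: growth inhibition of COLO-800 cells, read out with a cell viability assay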
COLO-829 = tested on: COLO-829
CTB-1 = tested on: CTB-1
DEL = tested on: DEL;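 note: growth inhibition of the human DEL cell line, read out with a cell viability assay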
DMS-79 = tested on: DMS-79;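 note: growth inhibition measured with a cell viability assay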
EC-GI-10 = tested on: EC-GI-10
ES1 = tested on: ES1;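 note: growth inhibition of ES1 cells, read out with a cell viability assay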
EW-16 = tested on: EW-16;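 note: growth inhibition of human EW-16 cells, read out as cell viability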
GAK = tested on: GAK;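 note: cell growth inhibition read out by a cell viability assay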
GT3TKB = tested on: GT3TKB;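 note: growth inhibition of the cell line, read out with a cell viability assay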
HEL = tested on: HEL;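 note: growth inhibition of HEL cells, read out with a cell viability assay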
HL-60 = tested on: HL-60;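 note: growth inhibition of human HL-60 cells, read out with a cell viability assay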
JAR = tested on: JAR;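 note: growth inhibition of human JAR cells determined with a cell viability assay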
K562 = tested on: K562
KARPAS-45 = tested on: KARPAS-45;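 note: inhibition of cell line growth, read out through a viability assay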
KE-37 = tested on: KE-37;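 note: growth inhibition of KE-37 cells, read out with a cell viability assay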
KU812 cell line = tested on: KU812 cell line;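 note: growth inhibition of KU812 cells, read out with a cell viability assay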
LAN-6 = tested on: LAN-6;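 note: growth inhibition of LAN-6 cells, determined with a cell viability assay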
LB373-MEL-D = tested on: LB373-MEL-D;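 note: growth inhibition of the cell line, read out in a cell viability assay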
LB996-RCC = tested on: LB996-RCC
LC-2-ad = tested on: LC-2-ad;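 note: growth inhibition of human LC-2-ad cells, read out with a cell viability assay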
LNCaP-Clone-FGC = tested on: LNCaP-Clone-FGC
LS-513 = tested on: LS-513
LU-134-A = tested on: LU-134-A
NCI-H209 = tested on: NCI-H209;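 note: growth inhibition of human NCI-H209 cells, measured by a cell viability assay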
NCI-H226 = tested on: NCI-H226;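 note: cell viability read-out used to gauge growth inhibition of the cells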
NCI-H720 = tested on: NCI-H720;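 note: growth inhibition of human NCI-H720 cells determined by a cell viability assay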
NH-12 = tested on: NH-12;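 note: growth inhibition of NH-12 cells, read out with a cell viability assay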
NOS-1 = tested on: NOS-1;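 note: growth inhibition of the human NOS-1 cell line, read out with a cell viability assay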
NTERA-2-cl-D1 = tested on: NTERA-2-cl-D1;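 note: inhibition of cell growth, measured with a cell viability assay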
P30-OHK = tested on: P30-OHK;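 note: growth inhibition of the P30-OHK cell line, read out with a cell viability assay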
PSN1 = tested on: PSN1;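 note: suppression of growth of human PSN1 cells, read out by a cell viability assay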
QIMR-WIL = tested on: QIMR-WIL;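 note: growth inhibition of QIMR-WIL cells, read out with a cell viability assay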
RH-1 = tested on: RH-1;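 note: growth inhibition of human RH-1 cells, read out with a cell viability assay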
RPMI-8866 = tested on: RPMI-8866
SF-126 = tested on: SF-126;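 note: growth inhibition of human SF126 cells, read out with a cell viability assay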
SF-539 = tested on: SF-539;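 note: Read-out is a cell viability assay, with IC50 reflecting inhibition of cell growth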
SK-LMS-1 = tested on: SK-LMS-1;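 note: growth inhibition of human SK-LMS-1 cells, read out with a cell viability assay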
SW872 = tested on: SW872;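 note: growth inhibition of SW872 cells, read out by a viability assay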
A388 = tested on: A388;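 note: growth inhibition of human A388 cells, read out with a cell viability assay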
A498 = tested on: A498;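 note: growth inhibition of human A498 cells, read out with a cell viability assay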
ALL-PO = tested on: ALL-PO;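 note: growth inhibition of ALL-PO cells, read out by a cell viability assay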
ATN-1 = tested on: ATN-1;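 note: growth inhibition of human ATN-1 cells, read out with a cell viability assay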
TE-10 = tested on: TE-10;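 note: growth inhibition of TE-10 cells, measured by a cell viability assay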
TE-5 = tested on: TE-5;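 note: inhibition of cell growth, read out by a cell viability assay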
TE-8 = tested on: TE-8;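 note: growth inhibition of TE-8 cells, measured with a cell viability readout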
TGBC1TKB = tested on: TGBC1TKB;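 note: growth inhibition of TGBC1TKB cells, read out by a cell viability assay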
CCRF-CEM = tested on: CCRF-CEM;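 note: inhibition of CCRF-CEM cell growth, measured by a cell viability assay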
COLO-320-HSR = tested on: COLO-320-HSR;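 note: growth inhibition of COLO-320-HSR cells, determined with a cell viability assay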

CCN(CC)CCNC(=O)c1c(C)[nH]c(/C=C2\C(=O)Nc3ccc(F)cc32)c1C [SUNITINIB]
IC50 (COLO-800; Homo sapiens, COLO-800): > 8 µM | IC50 (COLO-829; Homo sapiens, COLO-829): > 8 µM | IC50 (CTB-1; Homo sapiens, CTB-1): > 8 µM | IC50 (DEL; Homo sapiens, DEL): 2.08 µM | IC50 (DMS-79; Homo sapiens, DMS-79): > 8 µM | IC50 (EC-GI-10; Homo sapiens, EC-GI-10): > 8 µM | IC50 (ES1; Homo sapiens, ES1): > 8 µM | IC50 (EW-16; Homo sapiens, EW-16): 2.14 µM | IC50 (GAK; Homo sapiens, GAK): […] | IC50 (GT3TKB; Homo sapiens, GT3TKB): 6.61 µM | IC50 (HEL; Homo sapiens, HEL): 3.48 µM | IC50 (HL-60; Homo sapiens, HL-60): 4.21 µM | IC50 (JAR; Homo sapiens, JAR): 3.99 µM | IC50 (K562; Homo sapiens, K562): > 8 µM | IC50 (KARPAS-45; Homo sapiens, KARPAS-45): 2.49 µM | IC50 (KE-37; Homo sapiens, KE-37): 4.06 µM | IC50 (KU812 cell line; Homo sapiens, KU812): 6.69 µM | IC50 (LAN-6; Homo sapiens, LAN-6): > 8 µM | IC50 (LB373-MEL-D; Homo sapiens, LB373-MEL-D): > 8 µM | IC50 (LB996-RCC; Homo sapiens, LB996-RCC): 4.12 µM | IC50 (LC-2-ad; Homo sapiens, LC-2-ad): 1.11 µM | IC50 (LNCaP-Clone-FGC; Homo sapiens, LNCaP-Clone-FGC): > 8 µM | IC50 (LS-513; Homo sapiens, LS-513): > 8 µM | IC50 (LU-134-A; Homo sapiens, LU-134-A): > 8 µM | IC50 (NCI-H209; Homo sapiens, NCI-H209): > 8 µM | IC50 (NCI-H226; Homo sapiens, NCI-H226): > 8 µM | IC50 (NCI-H720; Homo sapiens, NCI-H720): > 8 µM | IC50 (NH-12; Homo sapiens, NH-12): > 8 µM | IC50 (NOS-1; Homo sapiens, NOS-1): 0.0153 µM | IC50 (NTERA-2-cl-D1; Homo sapiens, NTERA-2-cl-D1): > 8 µM | IC50 (P30-OHK; Homo sapiens, P30-OHK): > 8 µM | IC50 (PSN1; Homo sapiens, PSN1): 1.51 µM | IC50 (QIMR-WIL; Homo sapiens, QIMR-WIL): 3.63 µM | IC50 (RH-1; Homo sapiens, RH-1): > 8 µM | IC50 (RPMI-8866; Homo sapiens, RPMI-8866): > 8 µM | IC50 (SF-126; Homo sapiens, SF-126): 3.06 µM | IC50 (SF-539; Homo sapiens, SF-539): > 8 µM | IC50 (SK-LMS-1; Homo sapiens, SK-LMS-1): 3.83 µM | IC50 (SW872; Homo sapiens, SW872): > 8 µM | IC50 (A388; Homo sapiens, A388): > 8 µM | IC50 (A498; Homo sapiens, A498): > 8 µM | IC50 (ALL-PO; Homo sapiens, ALL-PO): 0.0799 µM | IC50 (ATN-1; Homo sapiens, ATN-1): 3.67 µM | IC50 (TE-10; Homo sapiens, TE-10): 2.34 µM | IC50 (TE-5; Homo sapiens, TE-5): > 8 µM | IC50 (TE-8; Homo sapiens, TE-8): 2.37 µM | IC50 (TGBC1TKB; Homo sapiens, TGBC1TKB): > 8 µM | IC50 (CCRF-CEM; Homo sapiens, CCRF-CEM): > 8 µM | IC50 (COLO-320-HSR; Homo sapiens, COLO-320-HSR): > 8 µM

BLEOMYCIN
IC50 (COLO-800; colo-800): 2.21 µM | IC50 (COLO-829; colo-829): 37 µM | IC50 (CTB-1; ctb-1): 0.0269 µM | IC50 (DEL; del): 0.48 µM | IC50 (DMS-79; dms-79): 325 µM | IC50 (EC-GI-10; ec-gi-10): 305 µM | IC50 (ES1; es1): 0.0267 µM | IC50 (EW-16; ew-16): 0.00685 µM | IC50 (GAK; gak): 126 µM | IC50 (GT3TKB; gt3tkb): 0.00685 µM | IC50 (HEL; hel): 10.8 µM | IC50 (HL-60; hl-60): 35.3 µM | IC50 (JAR; jar): 206 µM | IC50 (K562; k562): 126 µM | IC50 (KARPAS-45; karpas-45): 213 µM | IC50 (KE-37; ke-37): 25.9 µM | IC50 (KU812 cell line; ku812): 68 µM | IC50 (LAN-6; lan-6): 14.6 µM | IC50 (LB373-MEL-D; lb373-mel-d): 56.4 µM | IC50 (LB996-RCC; lb996-rcc): 0.175 µM | IC50 (LC-2-ad; lc-2-ad): 0.0804 µM | IC50 (LNCaP-Clone-FGC; lncap-clone-fgc): 18.3 µM | IC50 (LS-513; ls-513): 29 µM | IC50 (LU-134-A; lu-134-a): 41.8 µM | IC50 (NCI-H209; nci-h209): 34.3 µM | IC50 (NCI-H226; nci-h226): 77.4 µM | IC50 (NCI-H720; nci-h720): 103 µM | IC50 (NH-12; nh-12): 2.21 µM | IC50 (NOS-1; nos-1): 1.31 µM | IC50 (NTERA-2-cl-D1; ntera-2-cl-d1): 0.000139 µM | IC50 (P30-OHK; p30-ohk): 7.1 µM | IC50 (PSN1; psn1): 0.139 µM | IC50 (QIMR-WIL; qimr-wil): 0.637 µM | IC50 (RH-1; rh-1): 0.152 µM | IC50 (RPMI-8866; rpmi-8866): 7.91 µM | IC50 (SF-126; sf-126): 3.09 µM | IC50 (SF-539; sf-539): 0.393 µM | IC50 (SK-LMS-1; sk-lms-1): 2.66 µM | IC50 (SW872; sw872): 3.45 µM | IC50 (A388; a388): 0.877 µM | IC50 (A498; a498): 1020 µM | IC50 (ALL-PO; all-po): 0.986 µM | IC50 (ATN-1; atn-1): 18.9 µM | IC50 (TE-10; te-10): 0.783 µM | IC50 (TE-5; te-5): 7.96 µM | IC50 (TE-8; te-8): 0.377 µM | IC50 (TGBC1TKB; tgbc1tkb): 74.1 µM | IC50 (CCRF-CEM; ccrf-cem): 0.0787 µM | IC50 (COLO-320-HSR; colo-320-hsr): 3.43 µM
